Experimental data published in PubChem BioAssay AID2060355 (Molecular Pharmacology Branch, DTP, NCI, 2025).
Where “and” joins values, the source holds several entries; their conditions need not be identical. Identical values can stand only once.

Test system: 485368-065-R4-J2-PDC spheroids with HUVEC/MSC, viability
Experiment: Anticancer human tumor 485368-065-R4-J2-PDC patient-derived pancreatic carcinoma cell line growth inhibition [TAK]
Conditions: for viability, T/C: stronger effect = lower value; active means viability on the fitted dose curve at most 10% of control; inactive means the rest
Excerpt: Combinatorial screen of targeted agents with TAK-243 and ipatasertib in multi-cell type tumor spheroids
A high-throughput screen of multi-cell type tumor spheroids was designed to identify active combinations of targeted small molecules and TAK-243 or ipatasertib. Complex spheroids include a stromal component modeled by human endothelial cells (HUVEC) and fibroblasts modeled by human mesenchymal stem cells (MSCs). The concentration ranges selected for each drug and investigational agent were based upon clinically achievable concentrations if the clinical Cmax of the agent was known.
Compounds. The drugs and investigational agents: TAK-243 (785004), ipatasertib (767898), everolimus (733504), selumetinib (741078), bortezomib (756655), trametinib (758246), ixazomib (758254), vemurafenib (761431), dabrafenib (764134), sapanisertib (764658), alpelisib (765974), and copanlisib (816437), were obtained from the National Cancer Institute (NCI) Developmental Therapeutics Program Chemical Repository. The FDA-approved anticancer drug set is available from the NCI Developmental Therapeutics Program. […] The stock solutions were prepared in dimethyl sulfoxide (DMSO, Sigma-Aldrich, St. Louis, MO, cat. D2650) at 800-fold the tested concentration and stored at -70 degrees C prior to their use. All drugs and investigational agents were tested over a range starting from a high concentration at or near the clinical Cmax and decreasing in half-log increments. If the clinical Cmax for an agent had not been determined, the highest concentration tested was 10 microM.
NCI60 Cell Culture. NCI60 cell lines were obtained from the NCI Developmental Therapeutics Program Tumor Repository. For each lot of cells, the Repository performed Applied Biosystems AmpFLSTR Identifiler testing with PCR amplification to confirm consistency with the published Identifier STR profile for each cell line. Cells were kept in continuous culture for no more than 20 passages. The optimal seeding densities for each of the cell lines at each time point assessed were determined prior to performing the concentration response studies. Briefly, the NCI60 human tumor lines were grown as monolayers in RPMI 1640 medium supplemented with 10% FBS and 2 mmol/L L-glutamine.
An additional 2 lines were from the NCI60 cell line panel including melanomas, MALME-3M and SK-MEL-2. Pooled donor human umbilical vein endothelial cells (HUVEC, Lonza, cat. CC-2519) and human mesenchymal stem cells (hMSC, Lonza, cat. PT-2501) were purchased from Lonza (Walkersville, MD).
PDMR cell lines were grown in complete medium (DC medium): Dulbecco's modified Eagle's medium (DMEM)/F12 supplemented with 5% fetal bovine serum (FBS), 2 mM L-glutamine, 100 U/mL penicillin and 100 µg/ml streptomycin, 0.4 µg/ml hydrocortisone, 10 ng/ml epidermal growth factor (EGF) recombinant human protein, 24 µg/mL adenine, and 0.1 mg/mL primocin. During culture from frozen stock vials, PDMR cells were cultured in the same medium containing 10 µM Y-27632 (see Table 3). The PDCs were cultured in complete DMEM/F12 media without 10 microM Y-27632 dihydrochloride for at least two passages prior to the screen. The pooled donor HUVEC and hMSC were cultured in endothelial cell growth medium 2 (PromoCell, Heidelberg, Germany, cat. C-22011) and mesenchymal stem cell growth medium 2 (PromoCell, cat. C-28009), respectively. For all experiments, HUVEC and hMSC were used at passages </=5.
For the pre-screen, cell seeding densities were determined from a titration spanning the range from 5,000 to 313 cells per well. The mct-spheroids including 60% malignant cells, 25% HUVEC and 15% MSC dispensed as a mixture into U-bottom Ultra-Low Attachment 384-well plates (Corning, NY)
High-throughput Drug Combination Screening.
Prior to their inoculation into 384-well plates, malignant cells, HUVEC, and hMSC were removed from T flasks using TrypLE express (Thermo Fisher Scientific, cat. 12605036) and harvested by centrifugation for 5 min at 233 x g. […]
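Further: spheroids exposed to compounds for seven days before readout.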

COc1c(OCCCN2CCOCC2)ccc2c3n(c(=NC(=O)c4cnc(N)nc4)nc12)CCN3
inactive: viability, T/C (compound 0.00316 µM) 95.2% and 89.6% | viability, T/C (compound 0.01 µM) 74.6% and 75.8% | viability, T/C (compound 0.0316 µM) 72.5% and 70.2% | viability, T/C (compound 0.1 µM) 56.2% and 51.2% | viability, T/C (compound 0.316 µM) 32.7% and 29.9% | viability, T/C (compound 1 µM) 29.5% and 26.7%
126 nM and 96.9 nM: IC50 (curve of compound)

Cc1nc(NC(=O)N2CCCC2C(N)=O)sc1-c1ccnc(C(C)(C)C(F)(F)F)c1 (stereo unspecified)
inactive: viability, T/C (compound 0.0316 µM) 100% and 99.2% | viability, T/C (compound 0.1 µM) 92.8% and 93% | viability, T/C (compound 0.316 µM) 81.5% and 77.7% | viability, T/C (compound 1 µM) 81.9% and 78.4% | viability, T/C (compound 3.16 µM) 73.4% and 71.8% | viability, T/C (compound 10 µM) 51% and 48.5%
> 10000 nM: IC50 (curve of compound)

Cn1cnc2c(F)c(Nc3ccc(Br)cc3Cl)c(C(=O)NOCCO)cc21
inactive: viability, T/C (compound 0.00949 µM) 70.9% and 67.5% | viability, T/C (compound 0.03 µM) 68.9% and 66.8% | viability, T/C (compound 0.0949 µM) 76.3% and 60.8% | viability, T/C (compound 0.3 µM) 64.8% and 51% | viability, T/C (compound 0.949 µM) 54.1% and 43.5% | viability, T/C (compound 3 µM) 36.9% and 30.2%
1220 nM and 405 nM: IC50 (curve of compound)

COC1CC2CCC(C)C(O)(O2)C(=O)C(=O)N2CCCCC2C(=O)OC(C(C)CC2CCC(OCCO)C(OC)C2)CC(=O)C(C)C=C(C)C(O)C(OC)C(=O)C(C)CC(C)C=CC=CC=C1C (stereo unspecified) + CC(C)NCC(C(=O)N1CCN(c2ncnc3c2C(C)CC3O)CC1)c1ccc(Cl)cc1
> 100 nM: IC50 (curve of first compound, second compound 0.3 µM) | IC50 (curve of first compound, second compound 0.949 µM) | IC50 (curve of first compound, second compound 3 µM) | IC50 (curve of first compound, second compound 9.49 µM) | IC50 (curve of first compound, second compound 30 µM)
inactive: viability, T/C (second compound 0.3 µM, first compound 0.000316 µM) 93.1% | viability, T/C (second compound 0.3 µM, first compound 0.001 µM) 102% | viability, T/C (second compound 0.3 µM, first compound 0.00316 µM) 104% | viability, T/C (second compound 0.3 µM, first compound 0.01 µM) 107% | viability, T/C (second compound 0.3 µM, first compound 0.0316 µM) 101% | viability, T/C (second compound 0.3 µM, first compound 0.1 µM) 102% | viability, T/C (second compound 0.949 µM, first compound 0.000316 µM) 103% | viability, T/C (second compound 0.949 µM, first compound 0.001 µM) 106% | viability, T/C (second compound 0.949 µM, first compound 0.00316 µM) 100% | viability, T/C (second compound 0.949 µM, first compound 0.01 µM) 92.1% | viability, T/C (second compound 0.949 µM, first compound 0.0316 µM) 87.3% | viability, T/C (second compound 0.949 µM, first compound 0.1 µM) 83.5% | viability, T/C (second compound 3 µM, first compound 0.000316 µM) 100% | viability, T/C (second compound 3 µM, first compound 0.001 µM) 97.1% | viability, T/C (second compound 3 µM, first compound 0.00316 µM) 82.9% | viability, T/C (second compound 3 µM, first compound 0.01 µM) 76.5% | viability, T/C (second compound 3 µM, first compound 0.0316 µM) 71.1% | viability, T/C (second compound 3 µM, first compound 0.1 µM) 74.4% | viability, T/C (second compound 9.49 µM, first compound 0.000316 µM) 83.8% | viability, T/C (second compound 9.49 µM, first compound 0.001 µM) 83.1% | viability, T/C (second compound 9.49 µM, first compound 0.00316 µM) 69% | viability, T/C (second compound 9.49 µM, first compound 0.01 µM) 71.4% | viability, T/C (second compound 9.49 µM, first compound 0.0316 µM) 64.3% | viability, T/C (second compound 9.49 µM, first compound 0.1 µM) 60.3% | viability, T/C (second compound 30 µM, first compound 0.000316 µM) 73.9% | viability, T/C (second compound 30 µM, first compound 0.001 µM) 69% | viability, T/C (second compound 30 µM, first compound 0.00316 µM) 63.9% | viability, T/C (second compound 30 µM, first compound 0.01 µM) 58.7% | viability, T/C (second compound 30 µM, first compound 0.0316 µM) 60.1% | viability, T/C (second compound 30 µM, first compound 0.1 µM) 54.5%
